These results are taken from ChEMBL document CHEMBL5244220, “Methyl-containing pharmaceuticals: Methylation in drug design” (Bioorg Med Chem Lett, 2018).

One data set concerns the target BCR/ABL1 (Mus musculus, UniProt P00520). As to the kind of experiment: Inhibition of Bcr-Abl phosphorylation in BALB/c mouse 3T3 by Western blot analysis. The data set is classed as cell-based. For orientation: A western blot detects proteins with antibodies after separation by electrophoresis.
Data set [1] has as its target cAMP-dependent protein kinase (PKA) (Homo sapiens, UniProt P22694+P17612+P22612). As to the kind of experiment: Inhibition of PKA (unknown origin). The format is protein assay.
In the next data set the target is Protein kinase C (PKC). As to the kind of experiment: Inhibition of PKC (unknown origin). The data set is classed as protein assay, Homo sapiens.
The target in data set [2] is Platelet-derived growth factor receptor beta (Mus musculus, UniProt P05622). As to the kind of experiment: Inhibition of PDGFR phosphorylation in BALB/c mouse 3T3 by Western blot analysis. The data set is classed as cell-based.
Data set [3] addresses GABA-A receptor; anion channel. Kind of data set: Positive allosteric modulator activity at human GABAA receptor measured by [35S]TBPS based functional assay. The data set is classed as protein-complex assay.
The nature of the next data set: clinical. As to conditions: human, plasma, po, 100 mg.
The nature of data set [4]: Half life in Sprague-Dawley rat plasma at 20 mg/kg, po. The data set is classed as ADME, organism-based.
A short description of data set [5]: Oral bioavailability in rat. The format is ADME, organism-based. The note with it: in vivo.
A short description of data set [6]: Aqueous solubility of compound. The data set is classed as physicochemical.
A short description of data set [7]: Terminal half life in po dosed dog. As to conditions: in vivo, read-out: beta t1/2 (converted). The format is ADME, organism-based, Canis lupus familiaris.
Data set [8] can be described thus: Terminal half life in po dosed human. The format is ADME, organism-based. The note with it: in vivo, read-out: beta t1/2 (converted).
Data set [9] in a line: Terminal half life in po dosed mouse. As to conditions: in vivo, read-out: beta t1/2 (converted). The format is ADME, organism-based.
Data set [10] in a line: Terminal half life in po dosed rat. The data set is classed as ADME, organism-based. As to conditions: in vivo, read-out: beta t1/2 (converted).
A further data set concerns Aspergillus fumigatus. Kind of data set: Antifungal activity against Aspergillus fumigatus assessed as inhibition of fungal growth. The format is functional.
In data set [11] the target is T1, 3-hydroxy-3-methylglutaryl-coenzyme A reductase (Rattus norvegicus, UniProt P51639).
T1 sequence (P51639 whole entry): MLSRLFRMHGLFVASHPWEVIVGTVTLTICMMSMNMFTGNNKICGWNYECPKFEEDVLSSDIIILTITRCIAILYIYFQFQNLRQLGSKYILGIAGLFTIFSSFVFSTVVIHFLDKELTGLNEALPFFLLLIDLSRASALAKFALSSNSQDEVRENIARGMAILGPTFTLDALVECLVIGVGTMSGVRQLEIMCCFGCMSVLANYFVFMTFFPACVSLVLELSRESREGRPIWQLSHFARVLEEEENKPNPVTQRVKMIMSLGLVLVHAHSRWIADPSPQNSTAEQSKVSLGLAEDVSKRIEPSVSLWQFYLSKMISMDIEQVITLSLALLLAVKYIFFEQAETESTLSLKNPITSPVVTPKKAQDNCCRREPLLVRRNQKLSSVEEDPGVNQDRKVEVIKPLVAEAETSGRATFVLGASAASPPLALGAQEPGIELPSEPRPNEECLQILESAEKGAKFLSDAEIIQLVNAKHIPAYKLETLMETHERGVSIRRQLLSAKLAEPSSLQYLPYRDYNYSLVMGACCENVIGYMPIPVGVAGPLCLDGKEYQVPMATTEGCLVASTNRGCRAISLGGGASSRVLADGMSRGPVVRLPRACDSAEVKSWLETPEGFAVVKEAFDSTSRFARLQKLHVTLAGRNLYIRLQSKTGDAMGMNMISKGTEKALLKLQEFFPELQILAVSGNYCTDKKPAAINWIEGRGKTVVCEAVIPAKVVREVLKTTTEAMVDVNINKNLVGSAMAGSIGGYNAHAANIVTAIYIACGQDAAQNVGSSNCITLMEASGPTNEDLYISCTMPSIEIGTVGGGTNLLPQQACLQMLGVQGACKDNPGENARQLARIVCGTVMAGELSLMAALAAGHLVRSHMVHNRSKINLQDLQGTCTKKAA
As to the kind of experiment: Inhibition of rat liver HMG-CoA reductase pre incubated for 5 mins followed by substrate addition using NADPH as substrate by scintillation counter analysis. The data set is classed as tissue-based.

In data set [12] the target is T2, Orexin/Hypocretin receptor type 1 (Homo sapiens, UniProt O43613).
T2 sequence (O43613 whole entry): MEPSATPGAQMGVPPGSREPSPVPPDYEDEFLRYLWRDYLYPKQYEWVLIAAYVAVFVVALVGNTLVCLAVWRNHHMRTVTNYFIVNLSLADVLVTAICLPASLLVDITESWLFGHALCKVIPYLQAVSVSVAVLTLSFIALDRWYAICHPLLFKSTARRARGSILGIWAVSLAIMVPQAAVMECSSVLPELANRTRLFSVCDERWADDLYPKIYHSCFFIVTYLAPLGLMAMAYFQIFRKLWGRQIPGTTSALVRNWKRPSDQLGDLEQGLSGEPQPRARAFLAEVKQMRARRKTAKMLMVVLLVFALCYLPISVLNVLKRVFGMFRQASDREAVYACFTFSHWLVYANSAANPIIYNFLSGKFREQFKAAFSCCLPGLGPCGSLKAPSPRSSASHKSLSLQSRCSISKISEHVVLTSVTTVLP
As to the kind of experiment: Antagonist activity at human OX1R by FLIPR assay.

The target of the next data set is T3, Orexin receptor type 2 (Homo sapiens, UniProt O43614).
T3 sequence (O43614 whole entry): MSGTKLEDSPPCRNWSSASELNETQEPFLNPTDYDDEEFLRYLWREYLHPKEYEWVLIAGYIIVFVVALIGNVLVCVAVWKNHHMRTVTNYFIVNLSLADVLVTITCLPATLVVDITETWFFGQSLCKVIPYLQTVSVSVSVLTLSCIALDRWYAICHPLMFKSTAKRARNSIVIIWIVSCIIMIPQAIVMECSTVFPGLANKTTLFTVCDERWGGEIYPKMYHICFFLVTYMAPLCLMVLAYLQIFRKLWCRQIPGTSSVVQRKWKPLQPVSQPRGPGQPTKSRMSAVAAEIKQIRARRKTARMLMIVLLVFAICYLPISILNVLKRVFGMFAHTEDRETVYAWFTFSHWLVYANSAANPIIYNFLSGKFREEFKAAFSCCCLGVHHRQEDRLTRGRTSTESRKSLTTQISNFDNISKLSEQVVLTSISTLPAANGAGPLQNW
Kind of data set: Antagonist activity at human OX2R by FLIPR assay.

Data set [13] in a line: Apparent permeability across apical to basolateral side in human Caco-2 cells. The data set is classed as ADME, cell-based. In general terms: Caco-2 monolayers are a common model of the intestinal barrier.
Data set [14] is described as follows: Oral bioavailability in Sprague-Dawley rat at 2 mg/kg. As to conditions: in vivo. The data set is classed as ADME, organism-based.
A short description of data set [15]: Oral bioavailability in Beagle dog at 0.5 mg/kg. The format is ADME, organism-based, Canis lupus familiaris. As to conditions: in vivo.
Data set [16] can be described thus: Half life in rat plasma. The data set is classed as ADME, cell-free.

Structures are written as SMILES. A value given as a limit tells only on which side of the number the result lay.

Platelet-derived growth factor receptor beta, sequence (P05622 whole entry): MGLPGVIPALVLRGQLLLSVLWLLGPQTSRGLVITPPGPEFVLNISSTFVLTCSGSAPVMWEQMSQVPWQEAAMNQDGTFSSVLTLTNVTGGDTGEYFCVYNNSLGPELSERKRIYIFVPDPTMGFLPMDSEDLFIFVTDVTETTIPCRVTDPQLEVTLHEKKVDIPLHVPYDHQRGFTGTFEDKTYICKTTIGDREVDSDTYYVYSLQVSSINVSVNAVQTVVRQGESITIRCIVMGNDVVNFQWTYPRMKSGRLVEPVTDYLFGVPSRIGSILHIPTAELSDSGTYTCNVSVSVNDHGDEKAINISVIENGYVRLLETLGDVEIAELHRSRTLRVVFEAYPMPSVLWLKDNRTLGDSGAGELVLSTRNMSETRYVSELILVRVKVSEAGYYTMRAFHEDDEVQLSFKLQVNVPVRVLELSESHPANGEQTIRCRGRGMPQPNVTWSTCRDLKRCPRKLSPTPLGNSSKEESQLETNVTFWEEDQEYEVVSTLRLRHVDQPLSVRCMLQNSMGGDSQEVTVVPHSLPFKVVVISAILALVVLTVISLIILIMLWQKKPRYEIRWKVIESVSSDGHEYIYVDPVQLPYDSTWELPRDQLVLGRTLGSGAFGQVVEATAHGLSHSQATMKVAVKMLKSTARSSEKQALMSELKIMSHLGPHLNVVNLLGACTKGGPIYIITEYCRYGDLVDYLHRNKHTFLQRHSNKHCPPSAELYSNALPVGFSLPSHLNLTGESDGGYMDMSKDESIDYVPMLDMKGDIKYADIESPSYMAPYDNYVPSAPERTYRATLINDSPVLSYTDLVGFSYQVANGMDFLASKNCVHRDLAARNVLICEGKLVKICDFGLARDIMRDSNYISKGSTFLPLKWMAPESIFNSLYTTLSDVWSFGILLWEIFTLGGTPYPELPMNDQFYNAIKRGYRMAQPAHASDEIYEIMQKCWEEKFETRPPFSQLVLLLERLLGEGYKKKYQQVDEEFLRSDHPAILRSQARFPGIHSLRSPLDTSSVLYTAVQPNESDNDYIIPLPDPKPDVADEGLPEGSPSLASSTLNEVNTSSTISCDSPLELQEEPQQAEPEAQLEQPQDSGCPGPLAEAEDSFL
BCR/ABL1, sequence (P00520 whole entry): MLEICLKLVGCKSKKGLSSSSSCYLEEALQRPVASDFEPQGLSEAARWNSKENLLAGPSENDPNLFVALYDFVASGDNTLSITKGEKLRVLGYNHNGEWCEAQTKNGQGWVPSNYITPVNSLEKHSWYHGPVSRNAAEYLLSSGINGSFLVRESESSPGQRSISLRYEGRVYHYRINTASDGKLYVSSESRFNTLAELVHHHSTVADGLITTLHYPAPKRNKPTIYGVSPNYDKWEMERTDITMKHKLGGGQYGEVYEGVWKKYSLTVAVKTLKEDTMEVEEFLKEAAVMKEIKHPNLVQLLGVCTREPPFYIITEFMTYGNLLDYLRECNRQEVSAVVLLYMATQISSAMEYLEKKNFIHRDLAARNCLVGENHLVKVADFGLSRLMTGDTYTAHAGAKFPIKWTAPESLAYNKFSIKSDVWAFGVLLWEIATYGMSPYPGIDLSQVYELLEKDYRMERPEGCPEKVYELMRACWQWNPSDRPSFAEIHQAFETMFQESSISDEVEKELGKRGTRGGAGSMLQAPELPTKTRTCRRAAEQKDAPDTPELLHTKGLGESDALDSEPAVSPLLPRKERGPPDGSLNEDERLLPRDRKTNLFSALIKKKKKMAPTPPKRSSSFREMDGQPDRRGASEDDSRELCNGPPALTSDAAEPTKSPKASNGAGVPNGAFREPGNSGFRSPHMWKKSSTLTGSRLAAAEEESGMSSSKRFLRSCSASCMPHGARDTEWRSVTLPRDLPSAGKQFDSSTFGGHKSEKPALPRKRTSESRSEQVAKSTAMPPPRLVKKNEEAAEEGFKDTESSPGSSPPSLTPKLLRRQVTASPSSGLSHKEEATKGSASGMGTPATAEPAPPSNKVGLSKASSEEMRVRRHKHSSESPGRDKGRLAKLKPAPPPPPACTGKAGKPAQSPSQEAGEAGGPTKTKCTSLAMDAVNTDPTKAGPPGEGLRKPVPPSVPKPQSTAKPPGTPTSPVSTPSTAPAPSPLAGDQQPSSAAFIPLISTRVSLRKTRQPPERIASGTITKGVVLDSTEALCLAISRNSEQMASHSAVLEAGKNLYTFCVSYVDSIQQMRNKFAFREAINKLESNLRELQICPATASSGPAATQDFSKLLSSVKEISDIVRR
BCR/ABL1, sequence (Q6PAJ1 whole entry, further chain): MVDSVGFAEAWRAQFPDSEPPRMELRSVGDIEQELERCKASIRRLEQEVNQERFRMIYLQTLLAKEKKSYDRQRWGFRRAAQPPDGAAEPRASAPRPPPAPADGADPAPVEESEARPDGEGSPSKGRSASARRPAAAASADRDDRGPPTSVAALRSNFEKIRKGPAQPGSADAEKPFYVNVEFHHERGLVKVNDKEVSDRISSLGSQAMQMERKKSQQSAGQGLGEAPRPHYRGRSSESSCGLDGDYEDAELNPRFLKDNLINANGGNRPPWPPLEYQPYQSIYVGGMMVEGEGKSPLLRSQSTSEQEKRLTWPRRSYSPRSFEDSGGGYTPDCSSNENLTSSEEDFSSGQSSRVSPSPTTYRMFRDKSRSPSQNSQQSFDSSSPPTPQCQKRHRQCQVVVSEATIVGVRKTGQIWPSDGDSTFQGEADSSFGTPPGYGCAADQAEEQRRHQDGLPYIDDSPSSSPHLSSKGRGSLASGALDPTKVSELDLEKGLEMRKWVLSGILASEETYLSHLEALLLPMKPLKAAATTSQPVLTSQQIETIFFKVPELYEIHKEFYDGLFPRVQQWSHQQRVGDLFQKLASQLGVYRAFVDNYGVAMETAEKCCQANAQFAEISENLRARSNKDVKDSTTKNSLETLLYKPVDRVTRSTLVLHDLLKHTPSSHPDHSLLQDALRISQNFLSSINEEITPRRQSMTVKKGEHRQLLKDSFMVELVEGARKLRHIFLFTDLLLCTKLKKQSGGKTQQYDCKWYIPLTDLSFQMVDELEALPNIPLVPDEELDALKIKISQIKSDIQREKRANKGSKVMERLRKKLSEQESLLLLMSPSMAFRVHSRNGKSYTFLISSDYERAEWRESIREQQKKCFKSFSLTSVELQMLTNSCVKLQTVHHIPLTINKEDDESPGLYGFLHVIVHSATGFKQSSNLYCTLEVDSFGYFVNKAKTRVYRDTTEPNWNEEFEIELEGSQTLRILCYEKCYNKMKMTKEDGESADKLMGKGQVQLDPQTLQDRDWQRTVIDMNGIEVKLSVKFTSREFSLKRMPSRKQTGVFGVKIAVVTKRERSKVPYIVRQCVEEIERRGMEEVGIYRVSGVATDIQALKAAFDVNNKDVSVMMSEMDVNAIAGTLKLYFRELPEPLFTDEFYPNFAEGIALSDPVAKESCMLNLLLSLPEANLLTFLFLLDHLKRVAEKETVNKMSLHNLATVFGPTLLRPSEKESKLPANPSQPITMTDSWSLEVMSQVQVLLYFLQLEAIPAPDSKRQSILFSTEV

Take `CN1CCN(Cc2ccc(C(=O)Nc3cccc(Nc4nccc(-c5cccnc5)n4)c3)cc2)CC1`: the IC50 on BCR/ABL1 was 100 nM; in data set [1] it was > 100 µM; against Protein kinase C (PKC), > 100 µM; in data set [2] it was 200 nM. In turn, `CC(=O)[C@H]1CCC2C3CC[C@H]4C[C@](C)(O)CC[C@]4(C)C3CC[C@@]21C` (some centres not stated) registered an IC50 in data set [3] of 80 nM. This lies in the double-digit nanomolar range. In the case of `Cc1ccc(-c2cc(C(F)(F)F)nn2-c2ccc(S(N)(=O)=O)cc2)cc1` [CELECOXIB], the half-life in the data set “clinical” is 720 min; in [4], 210 min. Turning to `CC(c1ccncc1)n1[nH]c(=O)c2[nH]c3cc(Cl)ccc3c(=O)c2c1=O` (configuration not stated), in [5], the bioavailability came to 30%. In addition, in [6], the solubility was > 290 µg/mL. In the case of `CC(=O)[C@H]1CCC2C3CC[C@H]4C[C@H](O)CC[C@]4(C)C3CC[C@@]21C` (some centres not stated), inhibition in [3] was half-maximal at 51 nM (IC50).

Consider `O=c1[nH]nc(CN2CCO[C@H](OCc3cc(C(F)(F)F)cc(C(F)(F)F)c3)[C@@H]2c2ccc(F)cc2)[nH]1`, for which the half-life was 180 min in data set [7], 540 min in data set [8], 180 min in [9] and 180 min in [10]. Take `OC(Cn1cncn1)(Cn1cncn1)c1ccc(F)cc1`: the MIC in the data set with Aspergillus fumigatus was > 50 µg/mL. Turning to `CC[C@H](C)C(=O)O[C@H]1C[C@@H](C)C=C2C=C[C@H](C)[C@H](CC[C@@H]3C[C@@H](O)CC(=O)O3)[C@H]21` [LOVASTATIN], it took 2.2 nM to reach half-maximal inhibition in [11] (IC50).

Take `Cc1ccc(-n2nccn2)c(C(=O)N2CCC[C@@H](COc3ccc(F)cn3)C2)c1`: the values for the Ki (in [12]; on Orexin receptor type 2) were 96 nM and 29 nM, respectively.

`O=c1[nH]n(Cc2ccncc2)c(=O)c2c(=O)c3ccc(Cl)cc3[nH]c12`: the Papp A→B in data set [13] was determined as 0.2 ×10⁻⁶ cm/s. For `COc1cccc(OC)c1C(=O)N1CCCN(c2nc3ccc(Cl)cc3s2)CC1`, the Ki in [12] is 150 nM.

Consider `Cc1ccc(-c2ncccn2)c(C(=O)N2C[C@H](COc3ccc(F)cn3)CC[C@H]2C)c1` [FILOREXANT], for which the bioavailability in data set [14] stood at 25%; in data set [15], 26%. The amount in solution in data set [6] (solubility) came to 192 µM. In [16], `Cc1ccc(-c2ncc(Cl)cc2-c2ccc(S(C)(=O)=O)cc2)cn1` [ETORICOXIB] gave a half-life of 120 min.

Consider `Cc1ccc(NC(=O)c2ccc(CN3CCN(C)CC3)cc2)cc1Nc1nccc(-c2cccnc2)n1` [IMATINIB], for which half-maximal inhibition in data set [2] (IC50) required 50 nM. In other words, the double-digit nanomolar range. For `Cc1ccc(-n2nccn2)c(C(=O)N2C[C@H](COc3ccc(F)cn3)CC[C@H]2C)c1`, in data set [14], the bioavailability is < 10%. Also, the solubility in data set [6] was < 24 µM.

One may read the IC50 as the concentration that gives 50% inhibition. Usually bioavailability stands for the share of a dose that reaches the circulation, judged against a reference dose that is usually intravenous. As a reminder, the solubility is the concentration that dissolves in the medium under given conditions. Higher therefore signals much dissolved substance. As a reminder, the MIC is the lowest concentration found to suppress growth. As a reminder, the Ki is the dissociation constant of the complex between target and ligand, obtained from inhibition or displacement. As a reminder, the Papp A→B is the apparent permeability from the apical to the basolateral side of a cell layer.
